Laboratory results published in US20060069132A1, “Azolecarboxamide herbicides” (priority 2004, published 2006).

Key:
redroot pigweed = test: Test A pre-/postemergence herbicide test; format: in vivo, Amaranthus retroflexus
How it was run: (§1)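 Greenhouse injury scoring (0–100, complete control = 100) at approximately ten days follows simultaneous pre- and postemergence application. Soil received a directed spray after seeding; seedlings of 2–10 cm at the one- to two-leaf stage were sprayed to runoff.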

giant foxtail [1] = test: Test A pre-/postemergence herbicide test; format: in vivo, Setaria faberi
How it was run: as §1

corn = test: Test B pre-/postemergence herbicide test; format: in vivo, Zea mays; details: for Corn plant response rating: postemergence, scale 0 (no effect) to 100 (complete control)
How it was run: (§2)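 Greenhouse pot assay with simultaneous preemergence (treated seed) and postemergence (2–18 cm seedlings) applications of surfactant-containing, non-phytotoxic solvent formulations. Response scored visually 13–15 days later on a 0–100 scale, 100 meaning complete control.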

giant foxtail [2] = test: Test B pre-/postemergence herbicide test; format: in vivo, Setaria faberi; details: for Foxtail, Giant plant response rating: postemergence, scale 0 (no effect) to 100 (complete control)
How it was run: as §2

wheat = test: Test B postemergence herbicide test; format: in vivo, Triticum aestivum; parameters: key to Wheat plant response rating: 0 = no effect, 100 = complete control; details: postemergence, visual rating, scale 0 (no effect) to 100 (complete control)
How it was run: (§3)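 Read-out: visual comparison with controls, scored 0 to 100, where 100 means complete control and 0 no effect. Formulated chemicals were applied postemergence to plants 2–18 cm tall (1- to 4-leaf), or to flooded-paddy plants at the 2-leaf stage, then held 13 to 15 days under glass.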

morningglory [3] = test: Test B pre-/postemergence herbicide test; format: in vivo, Ipomoea coccinea; details: for Morningglory plant response rating: postemergence, scale 0 (no effect) to 100 (complete control)
How it was run: (§4)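 Formulation: non-phytotoxic solvent mix with surfactant. Timing: preemergence on seed and postemergence on 2–18 cm plants, applied concurrently. Readout after 13–15 d greenhouse: visual 0–100 control rating against controls.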

velvetleaf [4] = test: Test B pre-/postemergence herbicide test; format: in vivo, Abutilon theophrasti; details: for Velvetleaf plant response rating: postemergence, scale 0 (no effect) to 100 (complete control)
How it was run: as §2

large crabgrass [5] = test: Test B pre-/postemergence herbicide test; format: in vivo, Digitaria sanguinalis; details: for Crabgrass, Large plant response rating: postemergence, scale 0 (no effect) to 100 (complete control)
How it was run: as §2

ducksalad = test: Test B flooded paddy test; format: in vivo, Heteranthera limosa; details: 1000 g ai/ha, visual rating, scale 0 to 100 (0 no effect, 100 complete control), 13 to 15 days
How it was run: (§5)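 Scale 0–100: zero equals no visible effect, 100 complete control, judged by eye relative to controls. Timing: 13 to 15 days in greenhouse post-treatment. Growth stage at spraying: two leaves (paddy) or one to four leaves, 2–18 cm (postemergence).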

wild oat = test: Test B postemergence herbicide test; format: in vivo, Avena fatua; details: postemergence, visual rating, scale 0 (no effect) to 100 (complete control)
How it was run: as §3

barnyardgrass [6] = test: Test B flooded paddy test; format: in vivo, Echinochloa crus-galli; details: 1000 g ai/ha, visual rating, scale 0 to 100 (0 no effect, 100 complete control), 13 to 15 days
How it was run: as §5

lambsquarters = test: Test B pre-/postemergence herbicide test; format: in vivo, Chenopodium album; details: for Lambsquarters plant response rating: postemergence, scale 0 (no effect) to 100 (complete control)
How it was run: as §2

rice [7] = test: Test B flooded paddy test; format: in vivo, Oryza sativa; details: 1000 g ai/ha, visual rating, scale 0 to 100 (0 no effect, 100 complete control), 13 to 15 days
How it was run: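 Greenhouse test; postemergence application to plants at 1–4 leaves (2–18 cm); paddy species at 2 leaves; evaluated visually vs controls at 13–15 days; scale 0–100 (100 = complete control).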

velvetleaf [8] = test: Test A pre-/postemergence herbicide test; format: in vivo, Abutilon theophrasti
How it was run: as §1

pigweed = test: Test B pre-/postemergence herbicide test; format: in vivo, Amaranthus retroflexus; details: for Pigweed plant response rating: postemergence, scale 0 (no effect) to 100 (complete control)
How it was run: as §2

Surinam grass = test: Test B pre-/postemergence herbicide test; format: in vivo, Urochloa decumbens; details: for Surinam Grass plant response rating: postemergence, scale 0 (no effect) to 100 (complete control)
How it was run: as §2

blackgrass = test: Test B postemergence herbicide test; format: in vivo, Alopecurus myosuroides; details: postemergence, visual rating, scale 0 (no effect) to 100 (complete control)
How it was run: as §5

barnyardgrass [9] = test: Test A pre-/postemergence herbicide test; format: in vivo, Echinochloa crus-galli
How it was run: as §1

[10] = system: small flower umbrella sedge; test: Test B flooded paddy test; format: in vivo, Cyperus difformis; details: 1000 g ai/ha, visual rating, scale 0 to 100 (0 no effect, 100 complete control), 13 to 15 days
How it was run: as §5

large crabgrass [11] = test: Test A pre-/postemergence herbicide test; format: in vivo, Digitaria sanguinalis
How it was run: as §1

morningglory [12] = test: Test A pre-/postemergence herbicide test; format: in vivo, Ipomoea spp.
How it was run: as §1

rice [13] = test: Test B pre-/postemergence herbicide test; format: in vivo, Oryza sativa; details: 0 = no effect, 100 = complete control, preemergence
How it was run: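 Species tested were Echinochloa crus-galli, Ipomoea coccinea, Xanthium strumarium and Oryza sativa, treated both before emergence and at the 1- to 4-leaf stage; rice and barnyardgrass were also tested under flooding at 2 leaves. Greenhouse incubation lasted 13–15 days before visual 0–100 scoring.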

cocklebur = test: Test B pre-/postemergence herbicide test; format: in vivo, Xanthium strumarium; details: for Cocklebur plant response rating: postemergence, scale 0 (no effect) to 100 (complete control)
How it was run: as §4

barnyardgrass [14] = test: Test B pre-/postemergence herbicide test; format: in vivo, Echinochloa crus-galli; details: for Barnyardgrass plant response rating: postemergence, scale 0 (no effect) to 100 (complete control)
How it was run: as §4

[15] = Postemergence, 500 g ai/ha, 0 to 100 scale, 0 no effect, 100 complete control
[16] = Postemergence, 2000 g ai/ha, 0 to 100 scale, 0 no effect, 100 complete control
[17] = Preemergence, 2000 g ai/ha, visual rating, 0 to 100 scale (0 no effect, 100 complete control)
[18] = preemergence, 500 g ai/ha, visual injury, 0 to 100 scale (0 no effect, 100 complete control)
[19] = 125 g ai/ha, 0 = no effect, 100 = complete control, preemergence
[20] = 500 g ai/ha, visual rating, 0 = no effect, 100 = complete control, preemergence

Structure (SMILES): C#CCNC(=O)c1cccc(NC(=O)c2sc(C(C)(C)C)nc2CC)n1 [Compound 217]
- Pigweed plant response rating (redroot pigweed; [15]): 10
- Plant response rating, Pigweed (redroot pigweed; [16]): 25
- Pigweed plant response rating (redroot pigweed; [17]): 40
- Pigweed plant response rating (redroot pigweed; [18]): 0
- Foxtail, Giant plant response rating (giant foxtail [1]; [15]): 0
- Plant response rating, Foxtail, Giant (giant foxtail [1]; [16]): 0
- Foxtail, Giant plant response rating (giant foxtail [1]; [17]): 10
- Foxtail, Giant plant response rating (giant foxtail [1]; [18]): 0
- Corn plant response rating (0 to 100 scale) (corn; [19]): 0
- Plant response rating, Corn (corn; [20]): 0
- Corn plant response rating (corn; 125 g ai/ha, visual rating): 0
- Corn plant response rating (corn; 500 g ai/ha, visual rating): 0
- Foxtail, Giant plant response rating (0 to 100 scale) (giant foxtail [2]; [19]): 0
- Plant response rating, Foxtail, Giant (giant foxtail [2]; [20]): 0
- Foxtail, Giant plant response rating (giant foxtail [2]; 125 g ai/ha, visual rating): 0
- Foxtail, Giant plant response rating (giant foxtail [2]; 500 g ai/ha, visual rating): 0
- Wheat plant response rating (wheat; 125 g ai/ha): 0
- Wheat plant response rating (wheat; 500 g ai/ha): 0
- Morningglory plant response rating (0 to 100 scale) (morningglory [3]; [19]): 0
- Plant response rating, Morningglory (morningglory [3]; [20]): 0
- Morningglory plant response rating (morningglory [3]; 125 g ai/ha, visual rating): 0
- Morningglory plant response rating (morningglory [3]; 500 g ai/ha, visual rating): 10
- Velvetleaf plant response rating (0 to 100 scale) (velvetleaf [4]; [19]): 0
- Plant response rating, Velvetleaf (velvetleaf [4]; [20]): 0
- Velvetleaf plant response rating (velvetleaf [4]; 125 g ai/ha, visual rating): 0
- Velvetleaf plant response rating (velvetleaf [4]; 500 g ai/ha, visual rating): 10
- Crabgrass, Large plant response rating (0 to 100 scale) (large crabgrass [5]; [19]): 0
- Plant response rating, Crabgrass, Large (large crabgrass [5]; [20]): 0
- Crabgrass, Large plant response rating (large crabgrass [5]; 125 g ai/ha, visual rating): 0
- Crabgrass, Large plant response rating (large crabgrass [5]; 500 g ai/ha, visual rating): 0
- Ducksalad plant response rating (ducksalad): 0
- Oat, Wild plant response rating (wild oat; 125 g ai/ha): 0
- Oat, Wild plant response rating (wild oat; 500 g ai/ha): 0
- Barnyardgrass plant response rating (barnyardgrass [6]): 0
- Lambsquarters plant response rating (0 to 100 scale) (lambsquarters; [19]): 0
- Plant response rating, Lambsquarters (lambsquarters; [20]): 0
- Lambsquarters plant response rating (lambsquarters; 125 g ai/ha, visual rating): 0
- Lambsquarters plant response rating (lambsquarters; 500 g ai/ha, visual rating): 0
- Rice plant response rating (rice [7]): 0
- Velvetleaf plant response rating (velvetleaf [8]; [15]): 5
- Plant response rating, Velvetleaf (velvetleaf [8]; [16]): 30
- Velvetleaf plant response rating (velvetleaf [8]; [17]): 5
- Velvetleaf plant response rating (velvetleaf [8]; [18]): 0
- Pigweed plant response rating (0 to 100 scale) (pigweed; [19]): 0
- Plant response rating, Pigweed (pigweed; [20]): 0
- Pigweed plant response rating (pigweed; 125 g ai/ha, visual rating): 0
- Pigweed plant response rating (pigweed; 500 g ai/ha, visual rating): 0
- Surinam Grass plant response rating (0 to 100 scale) (Surinam grass; [19]): 0
- Plant response rating, Surinam Grass (Surinam grass; [20]): 0
- Surinam Grass plant response rating (Surinam grass; 125 g ai/ha, visual rating): 0
- Surinam Grass plant response rating (Surinam grass; 500 g ai/ha, visual rating): 10
- Blackgrass plant response rating (blackgrass; 125 g ai/ha): 0
- Blackgrass plant response rating (blackgrass; 500 g ai/ha): 0
- Barnyardgrass plant response rating (barnyardgrass [9]; [15]): 0
- Plant response rating, Barnyardgrass (barnyardgrass [9]; [16]): 0
- Barnyardgrass plant response rating (barnyardgrass [9]; [17]): 0
- Barnyardgrass plant response rating (barnyardgrass [9]; [18]): 0
- Sedge, Umbrella plant response rating [10]: 0
- Crabgrass, Large plant response rating (large crabgrass [11]; [15]): 0
- Plant response rating, Crabgrass, Large (large crabgrass [11]; [16]): 20
- Crabgrass, Large plant response rating (large crabgrass [11]; [17]): 10
- Crabgrass, Large plant response rating (large crabgrass [11]; [18]): 0
- Morningglory plant response rating (morningglory [12]; [15]): 15
- Plant response rating, Morningglory (morningglory [12]; [16]): 25
- Morningglory plant response rating (morningglory [12]; [17]): 0
- Morningglory plant response rating (morningglory [12]; [18]): 0
- Rice plant response rating (0 to 100 scale) (rice [13]; 125 g ai/ha): 0
- Plant response rating, Rice (rice [13]; 500 g ai/ha, visual rating): 0
- Cocklebur plant response rating (0 to 100 scale) (cocklebur; [19]): 0
- Plant response rating, Cocklebur (cocklebur; [20]): 0
- Cocklebur plant response rating (cocklebur; 125 g ai/ha, visual rating): 0
- Cocklebur plant response rating (cocklebur; 500 g ai/ha, visual rating): 0
- Barnyardgrass plant response rating (0 to 100 scale) (barnyardgrass [14]; [19]): 0
- Plant response rating, Barnyardgrass (barnyardgrass [14]; [20]): 0
- Barnyardgrass plant response rating (barnyardgrass [14]; 125 g ai/ha, visual rating): 0
- Barnyardgrass plant response rating (barnyardgrass [14]; 500 g ai/ha, visual rating): 0
